From US12503438B2, “Compounds for the treatment of kinase-dependent disorders” (Exelixis, Inc., priority 2019, dated 2025)

Experiments:
[1] = target: Met (Homo sapiens, UniProt P08581); assay: Met autophosphorylation ELISA in PC-3 cells; format: cell-based; parameters: endogenous in cells; host or cells: PC-3 prostate cancer cells (ATCC #CRL-1435); details: cellular activity, HGF-stimulated, phospho-Met ELISA, read-out: c-Met IC50
Outline: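 Phospho-Met (panTyr) sandwich ELISA on lysates of PC-3 cells given 100 ng/mL HGF for 10 min after 1 h compound exposure (8-point curve, 0.3% DMSO) following 3 h serum starvation. Normalised to HGF-stimulated DMSO and reference-inhibitor wells; 4-parameter logistic IC50.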

[2] = target: T1, AXL (Homo sapiens, UniProt P30530); assay: AXL autophosphorylation ELISA in A-172 cells; format: cell-based; details: cellular activity, Gas6-stimulated, phospho-AXL ELISA
T1 construct: endogenous in cells; host or cells: A-172 glioblastoma cells (ATCC #CRL-1620)
T1 sequence (P30530 26-894): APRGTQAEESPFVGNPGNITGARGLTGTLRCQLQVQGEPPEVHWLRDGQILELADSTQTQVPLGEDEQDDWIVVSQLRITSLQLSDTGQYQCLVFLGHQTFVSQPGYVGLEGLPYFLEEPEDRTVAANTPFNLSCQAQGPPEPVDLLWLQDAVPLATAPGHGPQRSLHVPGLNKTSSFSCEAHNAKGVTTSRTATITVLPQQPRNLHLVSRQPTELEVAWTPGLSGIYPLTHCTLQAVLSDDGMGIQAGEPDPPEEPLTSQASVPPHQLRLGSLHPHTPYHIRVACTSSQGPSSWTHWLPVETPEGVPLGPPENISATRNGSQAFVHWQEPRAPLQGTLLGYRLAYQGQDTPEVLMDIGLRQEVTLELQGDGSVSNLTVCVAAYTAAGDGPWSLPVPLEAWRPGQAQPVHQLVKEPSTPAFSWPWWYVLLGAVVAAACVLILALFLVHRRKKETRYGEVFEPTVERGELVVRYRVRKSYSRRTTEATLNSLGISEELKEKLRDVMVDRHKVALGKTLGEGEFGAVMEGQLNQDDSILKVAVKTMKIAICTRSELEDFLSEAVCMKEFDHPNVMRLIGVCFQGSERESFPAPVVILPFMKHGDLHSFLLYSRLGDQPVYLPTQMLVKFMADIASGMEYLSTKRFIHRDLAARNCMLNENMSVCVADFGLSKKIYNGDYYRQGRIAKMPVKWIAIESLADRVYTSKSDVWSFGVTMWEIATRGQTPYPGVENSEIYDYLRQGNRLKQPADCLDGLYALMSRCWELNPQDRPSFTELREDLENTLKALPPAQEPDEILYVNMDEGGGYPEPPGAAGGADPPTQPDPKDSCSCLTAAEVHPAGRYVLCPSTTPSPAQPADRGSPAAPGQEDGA
Outline: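 Serum-starved (24 h) A-172 glioblastoma cells got an 8-point compound series (0.3% DMSO) for 1 h, then 1 μg/mL human Gas6 for 15 min. Lysate phospho-AXL quantified by ELISA against phospho-AXL standard, normalized to DMSO and reference-inhibitor controls; IC50 by 4-parameter logistic fit.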

Sequence of Met (P08581 25-1390): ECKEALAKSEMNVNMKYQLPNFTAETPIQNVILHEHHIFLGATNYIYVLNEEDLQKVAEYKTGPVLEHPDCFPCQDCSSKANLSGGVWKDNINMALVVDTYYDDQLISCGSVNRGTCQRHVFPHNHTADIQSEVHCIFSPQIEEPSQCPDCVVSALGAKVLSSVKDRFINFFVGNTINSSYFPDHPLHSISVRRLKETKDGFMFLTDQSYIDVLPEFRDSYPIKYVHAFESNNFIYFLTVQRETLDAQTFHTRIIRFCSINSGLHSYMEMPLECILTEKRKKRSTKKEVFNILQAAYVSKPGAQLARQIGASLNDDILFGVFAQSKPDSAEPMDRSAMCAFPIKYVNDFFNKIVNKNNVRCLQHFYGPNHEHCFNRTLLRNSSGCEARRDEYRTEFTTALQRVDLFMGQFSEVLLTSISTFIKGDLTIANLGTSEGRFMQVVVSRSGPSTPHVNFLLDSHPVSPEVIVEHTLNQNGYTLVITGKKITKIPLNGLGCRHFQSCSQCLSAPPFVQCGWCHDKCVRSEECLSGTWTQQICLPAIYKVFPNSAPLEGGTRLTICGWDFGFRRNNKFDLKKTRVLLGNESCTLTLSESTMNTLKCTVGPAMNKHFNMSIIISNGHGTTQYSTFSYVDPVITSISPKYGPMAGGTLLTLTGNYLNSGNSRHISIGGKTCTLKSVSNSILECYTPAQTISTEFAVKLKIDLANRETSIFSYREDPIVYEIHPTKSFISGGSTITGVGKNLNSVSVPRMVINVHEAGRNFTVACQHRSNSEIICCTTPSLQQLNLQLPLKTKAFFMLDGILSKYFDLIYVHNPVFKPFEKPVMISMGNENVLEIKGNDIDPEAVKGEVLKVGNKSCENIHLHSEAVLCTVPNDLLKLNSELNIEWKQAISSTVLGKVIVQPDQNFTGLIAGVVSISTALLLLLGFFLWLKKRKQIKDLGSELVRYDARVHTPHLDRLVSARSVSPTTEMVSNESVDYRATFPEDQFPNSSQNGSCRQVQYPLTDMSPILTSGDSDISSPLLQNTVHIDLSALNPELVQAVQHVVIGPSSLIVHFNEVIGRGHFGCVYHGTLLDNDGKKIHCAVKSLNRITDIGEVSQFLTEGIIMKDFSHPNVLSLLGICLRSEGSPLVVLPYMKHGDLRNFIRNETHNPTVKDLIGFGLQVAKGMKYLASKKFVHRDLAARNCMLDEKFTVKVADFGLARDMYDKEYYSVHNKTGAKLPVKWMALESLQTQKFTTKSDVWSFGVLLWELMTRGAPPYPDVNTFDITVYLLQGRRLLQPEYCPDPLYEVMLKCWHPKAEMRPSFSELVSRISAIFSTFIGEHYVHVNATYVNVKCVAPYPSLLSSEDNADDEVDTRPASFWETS

For `O=C(Nc1ccc(F)cc1)C1(C(=O)Nc2ccc(Oc3ccnc4cc(-c5ccccc5)ccc34)cc2)CC1` [Compound 55, 1-N′-(4-Fluorophenyl)-1-N-[4-(7-phenylquinolin-4-yl)oxyphenyl]cyclopropane-1,1-dicarboxamide], the IC50 [1] was 0.1 to 0.3 µM and the IC50 [2] was 0.1 to 0.3 µM.

In the case of `Cc1cn(-c2ccc3c(Oc4ccc(NC(=O)C5(C(=O)Nc6ccc(F)cc6)CC5)cc4)ccnc3c2)cn1` [Compound 87, 1-N′-(4-Fluorophenyl)-1-N-[4-[7-(4-methylimidazol-1-yl)quinolin-4-yl]oxyphenyl]cyclopropane-1,1-dicarboxamide], the IC50 [1] is reported as 0.01 to 0.1 µM and the IC50 [2] is reported as ≤ 0.01 µM.

With `Nc1n[nH]cc1-c1ccc2c(Oc3ccc(NC(=O)C4(C(=O)Nc5ccc(F)cc5)CC4)cc3)ccnc2c1` [Compound 90, 1-N-[4-[7-(3-Amino-1H-pyrazol-4-yl)quinolin-4-yl]oxyphenyl]-1-N′-(4-fluorophenyl)cyclopropane-1,1-dicarboxamide] the IC50 [1] was 0.01 to 0.1 µM and the IC50 [2] was 0.01 to 0.1 µM.

`Cc1ccn(-c2ccc3c(Oc4ccc(NC(=O)C5(C(=O)Nc6ccc(F)cc6)CC5)cc4)ccnc3c2)n1` [Compound 91, 1-N′-(4-Fluorophenyl)-1-N-[4-[7-(3-methylpyrazol-1-yl)quinolin-4-yl]oxyphenyl]cyclopropane-1,1-dicarboxamide] was tested, and the IC50 [1] was 0.01 to 0.1 µM and the IC50 [2] was 0.1 to 0.3 µM.

In the case of `CC(=O)N1CCC(c2ccc3c(Oc4ccc(NC(=O)C5(C(=O)Nc6ccc(F)cc6)CC5)cc4)ccnc3c2)C1` (stereo not drawn) [Compound 92, 1-N-[4-[7-(1-Acetylpyrrolidin-3-yl)quinolin-4-yl]oxyphenyl]-1-N′-(4-fluorophenyl)cyclopropane-1,1-dicarboxamide], the IC50 [1] is reported as 0.01 to 0.1 µM and the IC50 [2] is reported as 0.01 to 0.1 µM.

`CS(=O)(=O)N1CCC(c2ccc3c(Oc4ccc(NC(=O)C5(C(=O)Nc6ccc(F)cc6)CC5)cc4)ccnc3c2)C1` (stereo not drawn) [Compound 93, 1-N′-(4-Fluorophenyl)-1-N-[4-[7-(1-methylsulfonylpyrrolidin-3-yl)quinolin-4-yl]oxyphenyl]cyclopropane-1,1-dicarboxamide] showed an IC50 [1] of 0.01 to 0.1 µM and an IC50 [2] of 0.1 to 0.3 µM.

`O=C(Nc1ccc(F)cc1)C1(C(=O)Nc2ccc(Oc3ccnc4cc(-c5cnn(CF)c5)ccc34)cc2)CC1` [Compound 94, 1-N-[4-[7-[1-(Fluoromethyl)pyrazol-4-yl]quinolin-4-yl]oxyphenyl]-1-N′-(4-fluorophenyl)cyclopropane-1,1-dicarboxamide] was tested, and the IC50 [1] was 0.01 to 0.1 µM and the IC50 [2] was ≤ 0.01 µM.

Compound `O=C(Nc1ccc(F)cc1)C1(C(=O)Nc2ccc(Oc3ccnc4cc(C5=CCOC5)ccc34)cc2)CC1` [Compound 95, 1-N-[4-[7-(2,5-Dihydrofuran-3-yl)quinolin-4-yl]oxyphenyl]-1-N′-(4-fluorophenyl)cyclopropane-1,1-dicarboxamide] has an IC50 [1] of 0.01 to 0.1 µM and an IC50 [2] of 0.01 to 0.1 µM.

Compound `Cc1cnn(-c2ccc3c(Oc4ccc(NC(=O)C5(C(=O)Nc6ccc(F)cc6)CC5)cc4)ccnc3c2)c1` [Compound 96, 1-N′-(4-Fluorophenyl)-1-N-[4-[7-(4-methylpyrazol-1-yl)quinolin-4-yl]oxyphenyl]cyclopropane-1,1-dicarboxamide] has an IC50 [1] of 0.01 to 0.1 µM and an IC50 [2] of 0.1 to 0.3 µM.

`Nc1cc(-c2ccc3c(Oc4ccc(NC(=O)C5(C(=O)Nc6ccc(F)cc6)CC5)cc4)ccnc3c2)ccn1` [Compound 97, 1-N-[4-[7-(2-Aminopyridin-4-yl)quinolin-4-yl]oxyphenyl]-1-N′-(4-fluorophenyl)cyclopropane-1,1-dicarboxamide] showed an IC50 [1] of 0.01 to 0.1 µM and an IC50 [2] of 0.01 to 0.1 µM.

In the case of `O=C(Nc1ccc(F)cc1)C1(C(=O)Nc2ccc(Oc3ccnc4cc(-c5ccn(C6CC6)n5)ccc34)cc2)CC1` [Compound 98, 1-N-[4-[7-(1-Cyclopropylpyrazol-3-yl)quinolin-4-yl]oxyphenyl]-1-N′-(4-fluorophenyl)cyclopropane-1,1-dicarboxamide], the IC50 [1] is reported as 0.01 to 0.1 µM and the IC50 [2] is reported as 0.01 to 0.1 µM.

`Cc1cc(-c2ccc3c(Oc4ccc(NC(=O)C5(C(=O)Nc6ccc(F)cc6)CC5)cc4)ccnc3c2)n[nH]1` [Compound 99, 1-N′-(4-Fluorophenyl)-1-N-[4-[7-(5-methyl-1H-pyrazol-3-yl)quinolin-4-yl]oxyphenyl]cyclopropane-1,1-dicarboxamide] was tested, and the IC50 [1] was 0.01 to 0.1 µM and the IC50 [2] was 0.01 to 0.1 µM.

In the case of `Cc1cc(-c2ccc3c(Oc4ccc(NC(=O)C5(C(=O)Nc6ccc(F)cc6)CC5)cc4)ccnc3c2)nn1C` [Compound 101, 1-N-[4-[7-(1,5-Dimethylpyrazol-3-yl)quinolin-4-yl]oxyphenyl]-1-N′-(4-fluorophenyl)cyclopropane-1,1-dicarboxamide], the IC50 [1] is reported as 0.01 to 0.1 µM and the IC50 [2] is reported as 0.01 to 0.1 µM.

In the case of `O=C(Nc1ccc(F)cc1)C1(C(=O)Nc2ccc(Oc3ccnc4cc(-c5ccn(CF)n5)ccc34)cc2)CC1` [Compound 102, 1-N-[4-[7-[1-(Fluoromethyl)pyrazol-3-yl]quinolin-4-yl]oxyphenyl]-1-N′-(4-fluorophenyl)cyclopropane-1,1-dicarboxamide], the IC50 [1] is reported as 0.01 to 0.1 µM and the IC50 [2] is reported as 0.01 to 0.1 µM.

With `O=C(Nc1ccc(F)cc1)C1(C(=O)Nc2ccc(Oc3ccnc4cc(-c5cc6ccccn6n5)ccc34)cc2)CC1` [Compound 104, 1-N′-(4-Fluorophenyl)-1-N-[4-(7-pyrazolo[1,5-a]pyridin-2-ylquinolin-4-yl)oxyphenyl]cyclopropane-1,1-dicarboxamide] the IC50 [1] was 0.1 to 0.3 µM and the IC50 [2] was 0.1 to 0.3 µM.

With `Cc1cc2c(Oc3cc(F)c(NC(=O)C4(C(=O)Nc5ccc(F)cc5)CC4)cc3F)ccnc2cc1-c1cnn(C)c1` [Compound 105, 1-N′-[2,5-Difluoro-4-[6-methyl-7-(1-methylpyrazol-4-yl)quinolin-4-yl]oxyphenyl]-1-N-(4-fluorophenyl)cyclopropane-1,1-dicarboxamide] the IC50 [1] was 0.01 to 0.1 µM and the IC50 [2] was 0.01 to 0.1 µM.

`Cc1cc2c(Oc3ccc(NC(=O)C4(C(=O)Nc5ccc(F)cc5)CC4)cc3)ccnc2cc1-c1cc[nH]n1` [Compound 107, 1-N′-(4-Fluorophenyl)-1-N-[4-[6-methyl-7-(1H-pyrazol-3-yl)quinolin-4-yl]oxyphenyl]cyclopropane-1,1-dicarboxamide] was tested, and the IC50 [1] was 0.1 to 0.3 µM and the IC50 [2] was 0.01 to 0.1 µM.

In the case of `Cc1cc2c(Oc3ccc(NC(=O)C4(C(=O)Nc5ccc(F)cc5)CC4)cc3)ccnc2cc1-c1ccn(C)n1` [Compound 108, 1-N′-(4-Fluorophenyl)-1-N-[4-[6-methyl-7-(1-methylpyrazol-3-yl)quinolin-4-yl]oxyphenyl]cyclopropane-1,1-dicarboxamide], the IC50 [1] is reported as 0.1 to 0.3 µM and the IC50 [2] is reported as 0.01 to 0.1 µM.
